Measured values taken from patent publication US8481528B2 (Hoffmann-La Roche Inc., priority 2010, dated 2013).
Counter-ions that a name gives are not always drawn.

Each compound was assayed against T1, human V1a receptor (Homo sapiens, UniProt P37288) (assay: human V1a receptor binding (3H-Vasopressin SPA, HEK293 membranes)). Settings: not given.
T1 construct: expressed in transfected cells; host or cells: HEK293 cells, transiently transfected; cell membranes
Protocol: The human V1a receptor was cloned by RT-PCR from total human liver RNA. The coding sequence was subcloned in an expression vector after sequencing to confirm the identity of the amplified sequence. […] Cell membranes were prepared from HEK293 cells transiently transfected with the expression vector and grown in 20 liter fermenters with the following protocol.
50 g of cells are resuspended in 30 ml freshly prepared ice cold Lysis buffer (50 mM HEPES, 1 mM EDTA, 10 mM magnesium dichloride adjusted to pH=7.4+complete cocktail of protease inhibitor (Roche Diagnostics)). Homogenized with Polytron for 1 min and sonicated on ice for 2×2 minutes at 80% intensity (Vibracell sonicator). The preparation is centrifuged 20 min at 500 g at 4° C., the pellet is discarded and the supernatant centrifuged 1 hour at 43′000 g at 4° C. (19'000 rpm). The pellet is resuspended in 12.5 ml Lysis buffer+12.5 ml sucrose 20% and homogenized using a Polytron for 1-2 min. The protein concentration is determined by the Bradford method and aliquots are stored at −80° C. until use. For binding studies 60 mg Yttrium silicate SPA beads (Amersham®) are mixed with an aliquot of membrane in binding buffer (50 mM Tris, 120 mM sodium chloride, 5 mM potassium chloride, 2 mM calcium dichloride, 10 mM magnesium dichloride) for 15 minutes with mixing. 50 μl of bead/membrane mixture is then added to each well of a 96 well plate, followed by 50 μl of 4 nM 3H-Vasopressin (American Radiolabeled Chemicals). For total binding measurement 100 μl of binding buffer are added to the respective wells, for non-specific binding 100 μl of 8.4 mM cold vasopressin and for compound testing 100 μl of a serial dilution of each compound in 2% dimethyl sulfoxide. The plate is incubated 1 h at room temperature, centrifuged 1 min at 1000 g and counted on a Packard Top-Count. Non-specific binding counts are subtracted from each well and data is normalized to the maximum specific binding set at 100%. To calculate an IC50 the curve is fitted using a non-linear regression model (XLfit) and the Ki is calculated using the Cheng-Prussoff equation.

T1 sequence (P37288 whole entry): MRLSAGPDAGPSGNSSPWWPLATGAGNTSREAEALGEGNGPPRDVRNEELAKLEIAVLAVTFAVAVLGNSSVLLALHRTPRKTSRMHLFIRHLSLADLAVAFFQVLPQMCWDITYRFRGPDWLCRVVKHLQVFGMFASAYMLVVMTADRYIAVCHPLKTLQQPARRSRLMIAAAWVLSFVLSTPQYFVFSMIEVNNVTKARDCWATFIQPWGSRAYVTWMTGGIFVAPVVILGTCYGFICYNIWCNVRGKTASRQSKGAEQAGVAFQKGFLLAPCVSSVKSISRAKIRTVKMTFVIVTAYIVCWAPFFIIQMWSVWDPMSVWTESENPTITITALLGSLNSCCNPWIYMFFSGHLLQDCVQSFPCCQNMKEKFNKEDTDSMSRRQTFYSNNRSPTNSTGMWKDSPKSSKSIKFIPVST

Q: `Clc1ccc2c(c1)CNCc1nnc([C@H]3CC[C@@H](c4nsc5ccccc54)CC3)n1-2` [Example 34, cis-1-(4-Benzo[d]isothiazol-3-yl-cyclohexyl)-8-chloro-5,6-dihydro-4H-2,3,5,10b-tetraaza-benzo[e]azulene] was tested. Which Ki did it give?
A: 25.7 nM

Q: How did the Ki turn out when `CC(=O)N1Cc2cc(Cl)ccc2-n2c(nnc2[C@H]2CC[C@H](c3nsc4ccccc43)CC2)C1` [Example 24, trans-1-[1-(4-Benzo[d]isothiazol-3-yl-cyclohexyl)-8-chloro-4H,6H-2,3,5,10b-tetraaza-benzo[e]azulen-5-yl]-ethanone] was run?
A: 0.398 nM

Q: For `Clc1ccc2c(c1)CNCc1nnc([C@H]3CC[C@H](c4nsc5ccccc54)CC3)n1-2` [Example 20, trans-1-(4-Benzo[d]isothiazol-3-yl-cyclohexyl)-8-chloro-5,6-dihydro-4H-2,3,5,10b-tetraaza-benzo[e]azulene hydrochloride], which Ki is on record?
A: 1.51 nM

Q: For `CC(C)(C)OC(=O)N1Cc2cc(Cl)ccc2-n2c(nnc2[C@H]2CC[C@H](c3noc4ncccc43)CC2)C1` [Example 16, trans-8-Chloro-1-(4-isoxazolo[5,4-b]pyridin-3-yl-cyclohexyl)-4H,6H-2,3,5,10b-tetraaza-benzo[e]azulene-5-carboxylic acid tert-butyl ester], which Ki is on record?
A: 3.63 nM

Q: Which Ki does the source give for `Clc1ccc2c(c1)CN(C1CCC1)Cc1nnc([C@H]3CC[C@H](c4nsc5ccccc54)CC3)n1-2` [Example 22, trans-1-(4-Benzo[d]isothiazol-3-yl-cyclohexyl)-8-chloro-5-cyclobutyl-5,6-dihydro-4H-2,3,5,10b-tetraaza-benzo[e]azulene] here?
A: 0.302 nM

Q: How did the Ki turn out when `CN1Cc2cc(Cl)ccc2-n2c(nnc2[C@H]2CC[C@H](c3noc4ccccc43)CC2)C1` [Example 6, trans-1-(4-Benzo[d]isoxazol-3-yl-cyclohexyl)-8-chloro-5-methyl-5,6-dihydro-4H-2,3,5,10b-tetraaza-benzo[e]azulene] was run?
A: 0.794 nM

Same assay, conditions: 3H-Vasopressin displacement, membranes of HEK293 cells transiently transfected with human V1a receptor; Ki by Cheng-Prusoff; read-out: pKi (hV1a) (converted)

Q: How did the Ki turn out when `CN1Cc2cc(Cl)ccc2-n2c(nnc2[C@H]2CC[C@H](c3noc4ccc(F)cc43)CC2)C1` [Example 12, trans-8-Chloro-1-[4-(5-fluoro-benzo[d]isoxazol-3-yl)-cyclohexyl]-5-methyl-5,6-dihydro-4H-2,3,5,10b-tetraaza-benzo[e]azulene] was run?
A: 0.794 nM

Q: How did the Ki turn out when `CNCCN1Cc2cc(Cl)ccc2-n2c(nnc2[C@H]2CC[C@H](c3nsc4ccccc43)CC2)C1` [Example 23, trans-{2-[1-(4-Benzo[d]isothiazol-3-yl-cyclohexyl)-8-chloro-4H,6H-2,3,5,10b-tetraaza-benzo[e]azulen-5-yl]-ethyl}-methyl-amine] was run?
A: 0.603 nM

Q: For `CN1Cc2cc(Cl)ccc2-n2c(nnc2[C@H]2CC[C@H](c3nsc4cnccc43)CC2)C1` [Example 32], which Ki is on record?
A: 0.891 nM

Q: For `CN1Cc2cc(Cl)ccc2-n2c(nnc2[C@H]2CC[C@H](c3noc4cccnc43)CC2)C1` [Example 15, trans-8-Chloro-1-(4-isoxazolo[4,5-b]pyridin-3-yl-cyclohexyl)-5-methyl-5,6-dihydro-4H-2,3,5,10b-tetraaza-benzo[e]azulene], which Ki is on record?
A: 0.708 nM

Q: Which Ki does the source give for `Clc1ccc2c(c1)CNCc1nnc([C@H]3CC[C@H](c4noc5cccnc54)CC3)n1-2` [Example 14, trans-8-Chloro-1-(4-isoxazolo[4,5-b]pyridin-3-yl-cyclohexyl)-5,6-dihydro-4H-2,3,5,10b-tetraaza-benzo[e]azulene hydrochloride] here?
A: 2.19 nM

Q: For `CC(C)(C)OC(=O)N1Cc2cc(Cl)ccc2-n2c(nnc2[C@H]2CC[C@H](c3nsc4cnccc43)CC2)C1` [Example 30], which Ki is on record?
A: 5.5 nM

Q: `CC(C)(C)OC(=O)N1Cc2cc(Cl)ccc2-n2c(nnc2[C@H]2CC[C@H](c3noc4ccccc43)CC2)C1` [Example 2, trans-1-(4-Benzo[d]isoxazol-3-yl-cyclohexyl)-8-chloro-4H,6H-2,3,5,10b-tetraaza-benzo[e]azulene-5-carboxylic acid tert-butyl ester] was tested. Which Ki did it give?
A: 4.79 nM

Q: Which Ki does the source give for `Clc1ccc2c(c1)CNCc1nnc([C@H]3CC[C@H](c4noc5ccccc54)CC3)n1-2` [Example 5, trans-1-(4-Benzo[d]isoxazol-3-yl-cyclohexyl)-8-chloro-5,6-dihydro-4H-2,3,5,10b-tetraaza-benzo[e]azulene hydrochloride] here?
A: 0.891 nM

Q: With `CC(C)(C)OC(=O)N1Cc2cc(Cl)ccc2-n2c(nnc2[C@H]2CC[C@H](c3nsc4ccccc43)CC2)C1` [Example 19, trans-1-(4-Benzo[d]isothiazol-3-yl-cyclohexyl)-8-chloro-4H,6H-2,3,5,10b-tetraaza-benzo[e]azulene-5-carboxylic acid tert-butyl ester] as the compound, how does the Ki read?
A: 7.59 nM

Q: Which Ki does the source give for `CC(C)(C)OC(=O)N1Cc2cc(Cl)ccc2-n2c(nnc2[C@H]2CC[C@H](c3noc4cc(F)ccc43)CC2)C1` [Example 7, trans-8-Chloro-[4-(6-fluoro-benzo[d]isoxazol-3-yl)-cyclohexyl]-4H,6H-2,3,5,10b-tetraaza-benzo[e]azulene-5-carboxylic acid tert-butyl ester] here?
A: 4.79 nM

Q: With `CC(C)(C)OC(=O)N1Cc2cc(Cl)ccc2-n2c(nnc2[C@H]2CC[C@H](c3noc4ccc(F)cc43)CC2)C1` [Example 10, trans-8-Chloro-1-[4-(5-fluoro-benzo[d]isoxazol-3-yl)-cyclohexyl]-4H,6H-2,3,5,10b-tetraaza-benzo[e]azulene-5-carboxylic acid tert-butyl ester] as the compound, how does the Ki read?
A: 3.24 nM

Q: Which Ki does the source give for `CC(C)(C)OC(=O)N1Cc2cc(Cl)ccc2-n2c(nnc2[C@H]2CC[C@H](c3noc4cccnc43)CC2)C1` [Example 13, trans-8-Chloro-1-(4-isoxazolo[4,5-b]pyridin-3-yl-cyclohexyl)-4H,6H-2,3,5,10b-tetraaza-benzo[e]azulene-5-carboxylic acid tert-butyl ester] here?
A: 2.69 nM

Q: For `Clc1ccc2c(c1)CNCc1nnc([C@H]3CC[C@H](c4nsc5cnccc54)CC3)n1-2` [Example 31, trans-8-Chloro-1-(4-isothiazolo[5,4-c]pyridin-3-yl-cyclohexyl)-5,6-dihydro-4H-2,3,5,10b-tetraaza-benzo[e]azulene], which Ki is on record?
A: 2.57 nM

Q: How did the Ki turn out when `CN1Cc2cc(Cl)ccc2-n2c(nnc2[C@H]2CC[C@H](c3nsc4ccccc43)CC2)C1` [Example 21, trans-1-(4-Benzo[d]isothiazol-3-yl-cyclohexyl)-8-chloro-5-methyl-5,6-dihydro-4H-2,3,5,10b-tetraaza-benzo[e]azulene] was run?
A: 1.58 nM

Q: With `CC(C)(C)OC(=O)N1Cc2cc(Cl)ccc2-n2c(nnc2[C@H]2CC[C@@H](c3noc4ccccc43)CC2)C1` [Example 1, cis-1-(4-Benzo[d]isoxazol-3-yl-cyclohexyl)-8-chloro-4H,6H-2,3,5,10b-tetraaza-benzo[e]azulene-5-carboxylic acid tert-butyl ester] as the compound, how does the Ki read?
A: 8.91 nM

Q: How did the Ki turn out when `Fc1ccc2c(c1)onc2[C@H]1CC[C@H](c2nnc3n2-c2ccc(Cl)cc2CNC3)CC1` [Example 8, trans-8-Chloro-1-[4-(6-fluoro-benzo[d]isoxazol-3-yl)-cyclohexyl]-5,6-dihydro-4H-2,3,5,10b-tetraaza-benzo[e]azulene hydrochloride] was run?
A: 1.51 nM

Q: With `Clc1ccc2c(c1)CNCc1nnc([C@H]3CC[C@H](c4nsc5cccnc54)CC3)n1-2` [Example 28, trans-8-Chloro-1-(4-isothiazolo[4,5-b]pyridin-3-yl-cyclohexyl)-5,6-dihydro-4H-2,3,5,10b-tetraaza-benzo[e]azulene] as the compound, how does the Ki read?
A: 1.1 nM

Q: With `CN(C)CC(=O)N1Cc2cc(Cl)ccc2-n2c(nnc2[C@H]2CC[C@H](c3nsc4ccccc43)CC2)C1` [Example 25, trans-1-[1-(4-Benzo[d]isothiazol-3-yl-cyclohexyl)-8-chloro-4H,6H-2,3,5,10b-tetraaza-benzo[e]azulen-5-yl]-2-dimethylamino-ethanone] as the compound, how does the Ki read?
A: 0.302 nM

Q: For `CC(C)(C)OC(=O)N1Cc2cc(Cl)ccc2-n2c(nnc2[C@H]2CC[C@H](c3nsc4cccnc43)CC2)C1` [Example 27, trans-8-Chloro-1-(4-isothiazolo[4,5-b]pyridin-3-yl-cyclohexyl)-4H,6H-2,3,5,10b-tetraaza-benzo[e]azulene-5-carboxylic acid tert-butyl ester], which Ki is on record?
A: 4.27 nM

Q: With `CN1Cc2cc(Cl)ccc2-n2c(nnc2[C@H]2CC[C@H](c3noc4ncccc43)CC2)C1` [Example 18, trans-8-Chloro-1-(4-isoxazolo[5,4-b]pyridin-3-yl-cyclohexyl)-5-methyl-5,6-dihydro-4H-2,3,5,10b-tetraaza-benzo[e]azulene] as the compound, how does the Ki read?
A: 0.891 nM

Q: For `Clc1ccc2c(c1)CNCc1nnc([C@H]3CC[C@H](c4noc5ncccc54)CC3)n1-2` [Example 17, trans-8-Chloro-1-(4-isoxazolo[5,4-b]pyridin-3-yl-cyclohexyl)-5,6-dihydro-4H-2,3,5,10b-tetraaza-benzo[e]azulene hydrochloride], which Ki is on record?
A: 5.25 nM
